Data taken from publication PMC11432330, “Novel Drug-like HsrA Inhibitors Exhibit Potent Narrow-Spectrum Antimicrobial Activities against Helicobacter pylori” (International Journal of Molecular Sciences, 2024).

System: H. pylori 26695
Assay: In vivo inhibition of HsrA: RNA-Seq transcriptomic analysis of exposed cells
Assay type: cell-based, Helicobacter pylori
Conditions: for log2 Fold Change: exposed to lethal concentrations vs control
Method: Bacterial growth from three blood agar plates of H. pylori ATCC 700392 (aka 26695) incubated for 48 h at 37 °C under microaerobic conditions was aseptically resuspended in BHI + FBS and adjusted to 10^7 CFU/mL. BHI broth cultures were incubated microaerobically at 37 °C for 24 h. […] At this time, bacterial growth was stopped by adding 1.5 mL ice-cold RNA stop solution (95% absolute ethanol, 5% acid-buffered phenol) and subsequently incubated on ice. Control samples were exposed to the same amount of DMSO instead of the inhibitor. Helicobacter cells from all samples were harvested by centrifugation (4000 rpm at 4 °C for 10 min), then the pellets were quickly frozen by immersion in liquid nitrogen and stored at −80 °C.
RNA-Seq analysis was performed by GENEWIZ (Azenta Life Sciences, Leipzig, Germany). Frozen cell pellets from two biological replicates of each treatment condition were properly submitted to GENEWIZ in dry ice. RNA-Seq libraries were prepared according to standard protocols via rRNA depletion, RNA fragmentation and random priming, reverse transcription, 5’-phosphorylation and dA-tailing of cDNAs, adaptor ligation, and PCR enrichment. Once the quality of each library was confirmed, they were sequenced on an Illumina NovaSeq 6000 (Illumina, San Diego, CA, USA) with 150-bp paired-ends. Raw sequence reads were filtered to remove possible adapter sequences and nucleotides with poor quality using Trimmomatic v.0.36 [105]. The trimmed reads were subsequently mapped to the H. pylori strain 26695 reference genome NC_000915.1 available on NCBI, by using the Bowtie2 aligner v.2.2.6 [106]. Unique gene hit counts were calculated by using featureCounts from the Subread package v.1.5.2. Only unique reads that fell within the gene regions were counted. Using DESeq2 [108], a comparison of the gene expression between the control and treated groups of samples was performed. The Wald test was used to generate p-values and log2 fold changes. Genes with an adjusted p-value < 0.05 and absolute log2 fold change >1 were considered as differentially expressed genes (DEGs) for each comparison. The RNA-Seq data generated in this study have been deposited in ArrayExpress with the accession number E-MTAB-14255.

## NC(=NOC(=O)Nc1ccc(Cl)cc1)c1csc([N+](=O)[O-])c1 [Ligand V, N′-{[(4-chloroanilino)carbonyl]}oxy-5-nitrothiophene-3-carboximidamide]
Gene HP0450
  log2 Fold Change: -0.486
Gene HP0462
  log2 Fold Change: -0.540
Gene HP0464, lethal concentrations of V vs control
  log2 Fold Change HP0464: 0.429
Gene HP0465
  log2 Fold Change: -0.541
Gene HP0469
  log2 Fold Change: 1.295
Gene HP0472
  log2 Fold Change: 1.301
Gene HP0474, lethal concentrations of V vs control
  log2 Fold Change HP0474: 0.428
Gene HP0485, lethal concentrations of V vs control
  log2 Fold Change HP0485: 0.392
Gene HP0513, lethal concentrations of V vs control
  log2 Fold Change HP0513: 0.406
Gene HP0515, lethal concentrations of V vs control
  log2 Fold Change HP0515: 0.192
Gene HP0518
  log2 Fold Change: -0.587
Gene HP0536, lethal concentrations of V vs control
  log2 Fold Change HP0536: 0.397
Gene HP0537
  log2 Fold Change: -0.567
Gene HP0540, lethal concentrations of V vs control
  log2 Fold Change HP0540: 0.190
Gene HP0546, lethal concentrations of V vs control
  log2 Fold Change HP0546: 0.161
Gene HP0555
  log2 Fold Change: -0.497
Gene HP0563, lethal concentrations of V vs control
  log2 Fold Change HP0563: 0.320
Gene HP0568
  log2 Fold Change: -0.470
Gene HP0586, lethal concentrations of V vs control
  log2 Fold Change HP0586: 0.156
Gene HP0587, lethal concentrations of V vs control
  log2 Fold Change HP0587: 0.303
Gene HP0602, lethal concentrations of V vs control
  log2 Fold Change HP0602: 0.450
Gene HP0608
  log2 Fold Change: -0.470
Gene HP0613
  log2 Fold Change: 1.327
Gene HP0639, lethal concentrations of V vs control
  log2 Fold Change HP0639: 0.172
Gene HP0640, lethal concentrations of V vs control
  log2 Fold Change HP0640: 0.392
Gene HP0641
  log2 Fold Change: -0.474
Gene HP0642
  log2 Fold Change: -0.561
Gene HP0648
  log2 Fold Change: -0.611
Gene HP0650, lethal concentrations of V vs control
  log2 Fold Change HP0650: 0.145
Gene HP0652, lethal concentrations of V vs control
  log2 Fold Change HP0652: 0.477
Gene HP0660, lethal concentrations of V vs control
  log2 Fold Change HP0660: 0.172
Gene HP0670, lethal concentrations of V vs control
  log2 Fold Change HP0670: 0.376
Gene HP0680, lethal concentrations of V vs control
  log2 Fold Change HP0680: 0.219
Gene HP0692
  log2 Fold Change: 1.329
Gene HP0699, lethal concentrations of V vs control
  log2 Fold Change HP0699: 0.318
Gene HP0702
  log2 Fold Change: -0.528
Gene HP0709, lethal concentrations of V vs control
  log2 Fold Change HP0709: 0.245
Gene HP0734
  log2 Fold Change: -0.529
Gene HP0737
  log2 Fold Change: -0.509
Gene HP0741
  log2 Fold Change: -0.519
Gene HP0742, lethal concentrations of V vs control
  log2 Fold Change HP0742: 0.440
Gene HP0748, lethal concentrations of V vs control
  log2 Fold Change HP0748: 0.146
Gene HP0750, lethal concentrations of V vs control
  log2 Fold Change HP0750: 0.398
Gene HP0755
  log2 Fold Change: -0.518
Gene HP0759
  log2 Fold Change: 1.350
Gene HP0763, lethal concentrations of V vs control
  log2 Fold Change HP0763: 0.150
Gene HP0765
  log2 Fold Change: -0.541
Gene HP0772
  log2 Fold Change: -0.471
Gene HP0773, lethal concentrations of V vs control
  log2 Fold Change HP0773: 0.301
Gene HP0782, lethal concentrations of V vs control
  log2 Fold Change HP0782: 0.353
Gene HP0796, lethal concentrations of V vs control
  log2 Fold Change HP0796: 0.282
Gene HP0803, lethal concentrations of V vs control
  log2 Fold Change HP0803: 0.182
Gene HP0805, lethal concentrations of V vs control
  log2 Fold Change HP0805: 0.416
Gene HP0810
  log2 Fold Change: -0.532
Gene HP0819
  log2 Fold Change: -0.529
Gene HP0820, lethal concentrations of V vs control
  log2 Fold Change HP0820: 0.198
Gene HP0823, lethal concentrations of V vs control
  log2 Fold Change HP0823: 0.406
Gene HP0833, lethal concentrations of V vs control
  log2 Fold Change HP0833: 0.436
Gene HP0836, lethal concentrations of V vs control
  log2 Fold Change HP0836: 0.282
Gene HP0840
  log2 Fold Change: -0.593
Gene HP0858, lethal concentrations of V vs control
  log2 Fold Change HP0858: 0.348
Gene HP0861
  log2 Fold Change: -0.479
Gene HP0864, lethal concentrations of V vs control
  log2 Fold Change HP0864: 0.392
Gene HP0872, lethal concentrations of V vs control
  log2 Fold Change HP0872: 0.335
Gene HP0885
  log2 Fold Change: -0.551
Gene HP0890, lethal concentrations of V vs control
  log2 Fold Change HP0890: 0.409
Gene HP0897, lethal concentrations of V vs control
  log2 Fold Change HP0897: 0.220
Gene HP0898, lethal concentrations of V vs control
  log2 Fold Change HP0898: 0.196
Gene HP0900, lethal concentrations of V vs control
  log2 Fold Change HP0900: 0.416
Gene HP0909, lethal concentrations of V vs control
  log2 Fold Change HP0909: 0.281
Gene HP0916
  log2 Fold Change: -0.568
Gene HP0935
  log2 Fold Change: -0.494
Gene HP0936
  log2 Fold Change: -0.576
Gene HP0939
  log2 Fold Change: -0.568
Gene HP0946, lethal concentrations of V vs control
  log2 Fold Change HP0946: 0.226
Gene HP0948, lethal concentrations of V vs control
  log2 Fold Change HP0948: 0.237
Gene HP0949, lethal concentrations of V vs control
  log2 Fold Change HP0949: 0.337
Gene HP0953
  log2 Fold Change: -0.500
Gene HP0955, lethal concentrations of V vs control
  log2 Fold Change HP0955: 0.173
Gene HP0963, lethal concentrations of V vs control
  log2 Fold Change HP0963: 0.462
Gene HP0976, lethal concentrations of V vs control
  log2 Fold Change HP0976: 0.322
